The text below walks through data of patent US5858968A, “Method of treating or preventing type 1 diabetes by oral administration of insulin” (AutoImmune Inc., priority 1995, dated 1999).

Holding throughout (type): in vivo
Assay [1] deals with NOD mice. Description: Treatment of initial stages of diabetes in NOD mice. As to conditions: oral and aerosol administration, 0 to 1 mg, hyperglycemic NOD mice. On the procedure:
Insulin (0 to 1 mg as in Examples 1 and 2) will be administered to NOD mice which are suffering from hyperglycemia in an oral and aerosol form. The treatments will begin by weeks 12-20 of age, by which the serum glucose levels are at hyperglycemic concentrations in a certain percentage of animals prior to onset of diabetes.

Assay [2] relates to NOD mice. Description: Insulitis in NOD mice fed insulin (preliminary experiments). The following applies: NOD mice fed 1 mg, vs PBS-fed NOD mice; data not shown. The source says: Therefore, oral administration of insulin to NOD mice appeared to be affecting the infiltration of immune system cells into the pancreas and thus halting disease progression by preserving beta cell function.

The test system of assay [3] is NOD mice. The assay is described as follows: Glucose post oral insulin in fasting 7 week NOD mice. The following applies: fasting 7 week old NOD mice. On the procedure: In order to determine whether any endocrinologic (i.e. direct lowering of blood sugar) effects occurred following the feeding of insulin, 7 week old NOD mice (5 mice per group) were fed 1 mg of porcine insulin or 1 mg of myelin basic protein (obtained from Pel Freez, Rogers, Ariz.) as a control protein. Blood glucose was then measured over the next 24 hour period. As a positive control, a separate group of animals were injected subcutaneously with 20 micrograms of Porcine insulin. All animals were kept in the fasting state.

Assay [4] concerns NOD mice. Description: Effect of feeding porcine insulin on spontaneous diabetes in NOD mice. The source says:
NOD (non-obese diabetic mice) were obtained from Taconic Laboratories (Germantown, Mass.) at 4 weeks of age. There were a total of 30 animals in each of the groups mentioned below at the beginning of the experiment. At 4 1/2 weeks of age, animals were orally administered Porcine insulin (Novo Laboratories, Danbury, Conn.). Each animal received two treatments orally twice a week until 9 weeks of age. The mice were fed either saline (control) or 10 micrograms, 100 micrograms, or 1 milligram of Porcine insulin. The animals were fed (gavaged) with an 18 gauge ball-point needle (Popper and Sons, Inc., New Hyde Park, N.Y.). Beginning at 10 weeks the animals were then fed once a week for a total of 33 weeks. Beginning at 12 weeks the urine was tested weekly for the presence of glucose using Glucosuria test tape (Eli Lilly, Indianapolis, Ind.). If an animal tested 3+or higher on the glucose urine test, a serum sample was taken and blood glucose measured using a glucose analyzer (Beckman). If the blood glucose was 220 or higher, the animals were classified as diabetic and then sacrificed.

Setting [5] is: subcutaneous injection of 20 micrograms.

Several values for one entry are separate records, joined by “and”; a condition that tells them apart may be missing. Identical values can stand only once. Entries after “also recorded” stand apart in the source; their conditions may differ.

As for “insulin: Porcine insulin (Novo Laboratories, Danbury, Conn.), given orally by gavage, subcutaneously as positive control, or planned as aerosol”, in the assay with NOD mice [1], the beta cell function entry is reported as “preservation of beta cell function” and the serum glucose concentrations entry is listed as “reduction in serum glucose concentrations to near normal levels”. Also, the “inflammatory immune system cells surrounding the pancreas (insulitis)” value in the assay with NOD mice [2] is “fewer inflammatory immune system cells surrounding the pancreas”. Also, in the assay with NOD mice [3] (1 mg oral), the “blood glucose after feeding” value is “no drop in the blood glucose”, the “blood glucose over the next 24 hours” value is “gradual decrease in blood glucose” and the “endocrinologic (metabolic) effects” value is reported as “no endocrinologic (metabolic) effects”. In the assay on NOD mice [3] (setting [5]), the “decrease in glucose level” value was “approximately 80 mg %” and the “period over which the glucose decrease persisted” value turned out to be 4 h. Besides, the development of diabetes result in the assay on NOD mice [4] (NOD mice fed 1 mg insulin orally (gavage), vs saline control, diabetic = blood glucose 220 or higher) is on record as “none of the mice went on to develop diabetes; also recorded: no diabetes developed; also recorded: None of the animals developed diabetes”. Also, in the assay with NOD mice [4] (NOD mice fed 10 micrograms insulin orally, dose response fashion), the development of diabetes result is listed as “diabetes developed”. In the assay on NOD mice [4] (NOD mice fed 10 micrograms of insulin), the “blood sugar in individual animals which developed diabetes” value was 330 mg/dL and 420 mg/dL and 315 mg/dL and 459 mg/dL and 520 mg/dL and 487 mg/dL. Besides, the development of diabetes result in the assay with NOD mice [4] (NOD mice fed 100 micrograms insulin orally, dose response fashion) is “diabetes developed”. The “blood sugar in individual animals that became diabetic” value in the assay on NOD mice [4] (NOD mice fed 100 micrograms of insulin) is 500 mg/dL and 290 mg/dL and 600 mg/dL and 450 mg/dL. Moreover, the incidence of diabetes result in the assay with NOD mice [4] (NOD mice, all doses of orally administered insulin, dose-dependent) is given as “lower incidence of diabetes; also recorded: reduced the numbers of these mice which subsequently went on to develop diabetes”. Further, in the assay on NOD mice [4] (NOD mice, highest dose of oral insulin (1 mg)), the “treated animals that failed to develop diabetes” value is listed as 100%.

B1: myelin basic protein: myelin basic protein (obtained from Pel Freez, Rogers, Ariz.) fed as a control protein (protein, UniProt P02686 1-304, looked up)
Myelin basic protein: MGNHAGKRELNAEKASTNSETNRGESEKKRNLGELSRTTSEDNEVFGEADANQNNGTSSQDTAVTDSKRTADPKNAWQDAHPADPGSRPHLIRLFSRDAPGREDNTFKDRPSESDELQTIQEDSAATSESLDVMASQKRPSQRHGSKYLATASTMDHARHGFLPRHRDTGILDSIGRFFGGDRGAPKRGSGKDSHHPARTAHYGSLPQKSHGRTQDENPVVHFFKNIVTPRTPPPSQGKGRGLSLSRFSWGAEGQRPGFGYGGRASDYKSAHKGFKGVDAQGTLSKIFKLGGRDSRSGSPMARR
Consider B1, for which, in the assay with NOD mice [3] (1 mg oral), the “blood glucose after feeding” value is reported as “no drop in the blood glucose” and the “blood glucose over the next 24 hours” value is reported as “gradual decrease in blood glucose”.
